pIC50: −log10 of the molar value.
Tests used:
[1] = target: T1, Polyunsaturated fatty acid lipoxygenase ALOX15 (Homo sapiens, UniProt P16050); conditions: l1236
T1 sequence (P16050 whole entry): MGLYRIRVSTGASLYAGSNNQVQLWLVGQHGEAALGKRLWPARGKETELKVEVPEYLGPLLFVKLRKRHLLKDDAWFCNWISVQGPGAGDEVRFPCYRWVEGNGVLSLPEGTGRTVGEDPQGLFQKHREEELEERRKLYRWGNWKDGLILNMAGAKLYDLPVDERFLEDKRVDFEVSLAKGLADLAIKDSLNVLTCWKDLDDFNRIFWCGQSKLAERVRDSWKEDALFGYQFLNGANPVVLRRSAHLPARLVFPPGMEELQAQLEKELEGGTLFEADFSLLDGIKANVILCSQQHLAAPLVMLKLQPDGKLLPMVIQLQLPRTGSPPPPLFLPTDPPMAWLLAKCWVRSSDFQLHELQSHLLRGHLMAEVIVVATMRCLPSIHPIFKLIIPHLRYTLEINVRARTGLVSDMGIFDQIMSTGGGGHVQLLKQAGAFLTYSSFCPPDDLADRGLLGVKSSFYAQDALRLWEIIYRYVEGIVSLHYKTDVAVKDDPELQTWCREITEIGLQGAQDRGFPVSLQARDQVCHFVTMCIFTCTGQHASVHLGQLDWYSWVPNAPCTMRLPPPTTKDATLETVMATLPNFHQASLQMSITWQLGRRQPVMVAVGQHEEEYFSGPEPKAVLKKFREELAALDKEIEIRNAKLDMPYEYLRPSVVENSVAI
Description: (§1) Inhibition of 15-LOX-1 in human L1236 cells assessed as reduction in conversion of arachidonic acid to 15-HETE pre-incubated 5 min before arachidonic acid substrate addition by HPLC-UV spectroscopy

[2] = target: T1, Polyunsaturated fatty acid lipoxygenase ALOX15
Description: as §1

[3] = target: T1, Polyunsaturated fatty acid lipoxygenase ALOX15; remark: listed apart in the source
Description: (§2) Inhibition of human 15-LOX-1 expressed in Sf9 cells assessed as reduction in conversion of arachidonic acid to 15-HETE pre-incubated 5 min before arachidonic acid substrate addition by HPLC-UV spectroscopy

[4] = target: T1, Polyunsaturated fatty acid lipoxygenase ALOX15; conditions: sf9
Description: as §2

Row | IC50 [1] | pIC50 [2] | pIC50 [3] | IC50 [4] | SMILES
1 | Not Active |  |  |  | CS(=O)(=O)Nc1c[nH]nc1C(=O)Nc1ccc(F)cc1Cl
2 | Not Active |  |  |  | O=C(Nc1ccc(F)cc1Cl)c1n[nH]cc1-c1ccccc1
3 |  | 6.20 | 5.49 |  | c1ccc2oc(-c3cc[nH]n3)nc2c1
4 | Not Active |  |  |  | O=C(Nc1cccnc1)c1ccn[nH]1
5 |  |  |  | Not Active | O=C(NCc1ccccc1)c1cc[nH]n1
6 | Not Active |  |  | Not Active | CN(C(=O)c1cc[nH]n1)c1ccccc1Cl
7 |  | 7.47 | 8.70 |  | Clc1ccc2nc(-c3n[nH]c(Cl)c3Cl)oc2c1
8 |  | 6.41 | 5.16 |  | O=C(Nc1ccccc1Cl)c1cn[nH]n1
9 |  | 5.48 |  | Not Active | O=C(Nc1ccc(F)cc1Cl)c1cc([N+](=O)[O-])[nH]n1
10 |  | 5.62 | 6.02 |  | O=C(Nc1ccc(F)cc1)c1cn[nH]n1

Row | SMILES | IC50 [1] | pIC50 [2] | pIC50 [3] | IC50 [4]
11 | O=C(Nc1cnc2ccccc2c1)c1cn[nH]n1 |  | 5.99 |  | 

— ChEMBL document CHEMBL3603736, “3-Substituted pyrazoles and 4-substituted triazoles as inhibitors of human 15-lipoxygenase-1” (Bioorg Med Chem Lett, 2015)
